# According to patent US8183238B2, “Bicyclic and tricyclic compounds as KAT II inhibitors” (priority 2009, dated 2012):
# Read-outs that look alike come from different tables or passages of the source.
# Tests used:
# [1] = Prodrug in vivo pharmacokinetics in monkeys (plasma, LC-MS-MS); design: species or system Monkey (Cynomolgus); settings: Example 4 in monkey plasma after oral Example 4 (10 mg/kg active); for Cmax / Tmax / half-life / AUC: Cynomolgus, cynomolgus monkey, plasma, po, 10 mg/kg; for F: calculated using IV AUC of 265 ng · h/mL
# Protocol: Test substances (Examples 4 and 71-73) were administered by oral gavage to groups of two monkeys.
# Blood samples were taken at various times after administration and submitted to analysis for the parent drug (Example 4 and Example 71) and pro-drug (Examples 72 and 73) using an LC-MS-MS assay. […] Pharmacokinetic parameters derived from the plasma analytical data were determined using Watson LIMS 7.2.003 (Thermo Fisher Scientific, Waltham, Mass.). The results are given in FIG. 2 and Tables 13, 14, and 15.
# [2] = as above; settings: Cynomolgus, cynomolgus monkey, iv, 0.3 mg/kg, plasma exposure of Example 4 in monkeys following intravenous administration of Example 4 at 0.3 mg/kg
# [3] = target: human KAT II (hKAT II) enzyme (Homo sapiens, UniProt Q8N5Z0); assay: KAT II Inhibition Spectra Assay; type: biochemical; settings: Table 5; hKAT II, decrease in OD370, 37° C., 15-20 h; read-out: KATII IC50
# Sequence of human KAT II (hKAT II) enzyme (Q8N5Z0 30-425): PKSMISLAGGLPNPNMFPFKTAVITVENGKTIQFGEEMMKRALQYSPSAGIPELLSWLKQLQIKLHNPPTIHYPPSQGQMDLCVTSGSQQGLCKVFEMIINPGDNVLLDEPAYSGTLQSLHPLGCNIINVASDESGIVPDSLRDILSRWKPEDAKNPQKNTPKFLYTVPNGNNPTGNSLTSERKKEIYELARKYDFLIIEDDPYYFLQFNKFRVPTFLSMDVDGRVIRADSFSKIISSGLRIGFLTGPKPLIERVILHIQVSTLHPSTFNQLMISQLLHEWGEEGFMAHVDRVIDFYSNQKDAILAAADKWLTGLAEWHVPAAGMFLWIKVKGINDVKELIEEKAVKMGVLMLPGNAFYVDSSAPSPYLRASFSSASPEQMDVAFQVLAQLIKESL
# Summary of the method: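 hKAT II (15 nM, 3× stock) converts L-kynurenine (3 mM, 3× stock) with α-ketoglutarate and PLP in Tris acetate; 15–20 h at 37 °C. Inhibition of the OD370 decrease read versus DMSO wells across a concentration range gives IC50.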
# [4] = Prodrug in vivo pharmacokinetics in dogs (plasma, LC-MS-MS); design: species or system Dog (Beagle); settings: Beagle, dog, in vivo, po, 1 mg/kg
# Protocol: Test substances (Examples 4 and 71-73) were administered by oral gavage to groups of two dogs. Example 71 was also administered intravenously.
# Blood samples were taken at various times after administration and submitted to analysis for the parent drug (Example 71) and pro-drug (Examples 72 and 73) using an LC-MS-MS assay. Pharmacokinetic parameters derived from the plasma analytical data were determined using Watson LIMS 7.2.003 (Thermo Fisher Scientific, Waltham, Mass.). The results are given in FIG. 1 and Tables 8, 9, 10, and 11.
# [5] = Prodrug in vivo pharmacokinetics in rats (plasma, LC-MS-MS); settings: Wistar-Han, rat
# Protocol: Test substances (Examples 4, 73, and 366-369) were administered by oral gavage to groups of three rats.
# Blood samples were taken at various times after administration and analyzed for the parent drug (Example 4) and prodrugs (Examples 73 and 366-369) using an LC-MS-MS assay. Pharmacokinetic parameters derived from the plasma analytical data were determined using Watson LIMS version 7.2.003 (Thermo Fisher Scientific, Waltham, Mass.).
structure (smiles),measurement,setting,value
"N[C@H]1Cc2ccccc2N(O)C1=O [Example 4, (3S)-3-amino-1-hydroxy-3,4-dihydroquinolin-2(1H)-one]",Cmax,[1]; Mean,220 ng/mL
same,Tmax,[1]; Mean,41.4 min
same,half-life,[1]; Mean,43.8 min
same,AUC,"[1]; Mean, read-out: AUC",181 ng·h/mL
same,AUC,"[1]; Mean, read-out: AUC Extrap",186 ng·h/mL
same,Cmax,[1]; Monkey 1,200 ng/mL
same,Tmax,[1]; Monkey 1,60 min
same,half-life,[1]; Monkey 1,46.8 min
same,AUC,"[1]; Monkey 1, read-out: AUC",184 ng·h/mL
same,AUC,"[1]; Monkey 1, read-out: AUC Extrap",188 ng·h/mL
same,Cmax,[1]; Monkey 2,340 ng/mL
same,Tmax,[1]; Monkey 2,15 min
same,half-life,[1]; Monkey 2,49.2 min
same,AUC,"[1]; Monkey 2, read-out: AUC",239 ng·h/mL
same,AUC,"[1]; Monkey 2, read-out: AUC Extrap",247 ng·h/mL
same,Cmax,[1]; Monkey 3,206 ng/mL
same,Tmax,[1]; Monkey 3,30 min
same,half-life,[1]; Monkey 3,40.8 min
same,AUC,"[1]; Monkey 3, read-out: AUC",141 ng·h/mL
same,AUC,"[1]; Monkey 3, read-out: AUC Extrap",144 ng·h/mL
same,Cmax,[1]; Monkey 4,133 ng/mL
same,Tmax,[1]; Monkey 4,60 min
same,half-life,[1]; Monkey 4,37.8 min
same,AUC,"[1]; Monkey 4, read-out: AUC",159 ng·h/mL
same,AUC,"[1]; Monkey 4, read-out: AUC Extrap",163 ng·h/mL
same,% AUC Extrap,[1]; Mean,2.46%
same,% AUC Extrap,[1]; Monkey 1,2.28%
same,% AUC Extrap,[1]; Monkey 2,3.05%
same,% AUC Extrap,[1]; Monkey 3,1.96%
same,% AUC Extrap,[1]; Monkey 4,2.56%
same,F,[1]; Mean,2.1%
same,F,[1]; Monkey 1,2.1%
same,F,[1]; Monkey 2,2.8%
same,F,[1]; Monkey 3,1.6%
same,F,[1]; Monkey 4,1.8%
same,AUC,[2],265 ng·h/mL
same,IC50,[3],37.5 nM
same,AUC increase vs. oral administration of Ex. 4,[4],1.0
same,AUC increase vs. oral administration of Ex. 4,[5],1.0
